Reference: the RepoRT retention time repository (doi:10.1021/acs.analchem.2c02893)

Test: RP, Thermo Scientific Acclaim RSLC 120 C18, 100 × 2.1 mm, 2.2 µm, 30 °C, 0.2 mL/min, estimated dead time 1.1 min; A: 90% water + 10% methanol + 0.01% formic acid + 5 mM ammonium formate, pH 3.61; B: methanol + 0.01% formic acid + 5 mM ammonium formate, pH 3.61; gradient (min/%B) 0/1 1/1 2/39 13/99.9 15/99.9 15.1/1 20.1/1
Settings: stereoisomer not certain

SMILES	LC retention time [min]
Cc1c(N(C)CS(=O)(=O)O)c(=O)n(-c2ccccc2)n1C [Dipyron (Metamizol)]	4.49
CCCc1cc(C(N)=S)ccn1 [Protionamide]	6.36
Cc1ccc(C(CCN(C)C)c2ccccc2)cc1 (configuration not stated) [Tolpropamine]	7.47
CCS(=O)(=O)CCSP(=O)(OC)OC [Demeton-S-methylsulfone]	4.15
COC(=O)C(C)N(C(=O)c1ccco1)c1c(C)cccc1C (configuration not stated) [Furalaxyl]	8.99
CCNC1CC(C)S(=O)(=O)c2sc(S(N)(=O)=O)cc21 (configuration not stated) [Dorzolamide]	3.19
CC(C)(c1ccc(OCC2CO2)cc1)c1ccc(OCC2CO2)cc1 (configuration not stated) [Bisphenol A diglycidyl ether]	10.8
COc1cc(CCN)c(OC)cc1Cl [2C-C]	5.28
COc1ccc2c(c1)c(CC(=O)OCC(=O)O)c(C)n2C(=O)c1ccc(Cl)cc1 [Acemetacin]	9.9
Cc1c(OCC(F)(F)F)ccnc1CS(=O)c1nc2ccccc2[nH]1 (configuration not stated) [Lansoprazole]	8.38
CNCC(C)CN1c2ccccc2CCc2ccccc21 (configuration not stated) [Trimipramine-Nor]	8.49
CCc1nn(C)c(C(=O)NCc2ccc(C(C)(C)C)cc2)c1Cl [Tebufenpyrad]	12.2
O=C(O)c1ccccc1C(=O)Nc1ccc(S(=O)(=O)Nc2nccs2)cc1 [Sulfathiazole-Phthalyl]	4.66
CC12CCC3c4ccc(O)cc4CCC3C1CCC2=O (configuration not stated) [E1 (1-3-5(10)-estratrien-3-ol-17-one estrone)]	9.56
O=C(c1cccc2ccccc12)c1nc2ccccc2n1CCCCCF [FUBIMINA]	11.6
CCn1cc(C(=O)O)c(=O)c2ccc(C)nc21 [Nalidixic acid]	7.06

SMILES	LC retention time [min]
COc1ccc(CNC(=O)c2cc([N+](=O)[O-])ccc2NC(C)CO)cc1OC (configuration not stated) [Benzamidenafil]	7.8
CC(C)(C)C(NC(=O)c1cn(CC2CCCCC2)c2ccccc12)C(N)=O (configuration not stated) [ADB-CHMICA]	11.7
CC(C)(C)C(NC(=O)c1nn(CC2CCCCC2)c2ccccc12)C(N)=O (configuration not stated) [MAB-CHMINACA]	11.8
COP(=S)(OC)SCN1C(=O)c2ccccc2C1=O [Phosmet]	8.94
O=c1oc2ccccc2c(O)c1C1CC(c2ccc(OCc3ccc(C(F)(F)F)cc3)cc2)Cc2ccccc21 (configuration not stated) [Flocoumafen]	12.4
CNC(CC(C)C)C(=O)NC1C(=O)NC(CC(N)=O)C(=O)NC2C(=O)NC3C(=O)NC(C(=O)NC(C(=O)O)c4cc(O)cc(O)c4-c4cc3ccc4O)C(O)c3ccc(c(Cl)c3)Oc3cc2cc(c3OC2OC(CO)C(O)C(O)C2OC2CC(C)(N)C(O)C(C)O2)Oc2ccc(cc2Cl)C1O (configuration not stated) [Vancomycin]	3.26
CCC(C)(CC)c1cc(NC(=O)c2c(OC)cccc2OC)on1 [Isoxaben]	9.42
CC(C)N(C(=O)SCC(Cl)=C(Cl)Cl)C(C)C [Triallate]	12.7
CC1(C)C(C(=O)c2cn(CCCC(F)(F)F)c3ccccc23)C1(C)C [XLR-12]	12
CC(C)NCC(O)c1ccccc1Cl (configuration not stated) [Clorprenaline]	4.76
COC=C(C(=O)OC)c1ccccc1COc1cc(C(F)(F)F)nc(OC(C)C)n1 [Fluacrypyrim]	11.5
COC(=O)N(OC)c1ccccc1COc1ccn(-c2ccc(Cl)cc2)n1 [Pyraclostrobin]	11.2
CC(=O)Nc1ccc(O)c(C(=O)O)c1 [N-Acetyl mesalazine]	3.43
CC(=O)Nc1ccc(S(=O)(=O)Nc2ncccn2)cc1 [Sulfadiazine-N4-Acetyl]	4.11
Cc1cccc(Nc2ccccc2C(=O)O)c1C [Mefenamic acid]	11.6
C=C1CC(=CC)C(=O)OC2CCN3CC=C(COC(=O)C1(C)O)C23 (configuration not stated) [Seneciphylline]	4.17
